Test results published in patent US8722658B2, “Azetidinyl diamides as monoacylglycerol lipase inhibitors” (Janssen Pharmaceutica, NV, priority 2009, dated 2014).

Assays:
[1] = test system: rat, CFA-induced thermal hypersensitivity; assay: CFA-Induced Paw Radiant Heat Hypersensitivity; type: in vivo; conditions: 30 mg/kg p.o., HPβCD, group mean values, last time point 180 or 300 min
Procedure: Each rat was placed in a test chamber on a warm glass surface and allowed to acclimate for approximately 10 min. A radiant thermal stimulus (beam of light) was then focused through the glass onto the plantar surface of each hind paw in turn. The thermal stimulus was automatically shut off by a photoelectric relay when the paw was moved or when the cut-off time was reached (20 sec for radiant heat at ˜5 amps). An initial (baseline) response latency to the thermal stimulus was recorded for each animal prior to the injection of complete Freund's adjuvant (CFA). 24 h following intraplantar CFA injection, the response latency of the animal to the thermal stimulus was then re-evaluated and compared to the animal's baseline response time. […] Post-compound treatment withdrawal latencies were assessed at fixed time intervals, typically 30, 60, 120, 180, and 300 min.
The percent reversal (% R) of hypersensitivity was calculated in one of two different ways: 1) using group mean values or 2) using individual animal values. […]
For all compounds, the % R of hypersensitivity was calculated using the mean value for groups of animals at each time point according to the following formula: % reversal=[(group treatment response−group CFA response)/(group baseline response−group CFA response)]×100 Results are given for the maximum % reversal observed for each compound at any time point tested. […]

mutant MGL = target: T1, mutant MGL (Homo sapiens, UniProt Q99685, L169S/L176S); assay: MGL ThermoFluor Assay-Mutant; conditions: read-out: MGL mutant ThermoFluor qKd (using qNMR conc.), compound concentration measured by qNMR
T1 sequence (Q99685 1-303 L169S/L176S): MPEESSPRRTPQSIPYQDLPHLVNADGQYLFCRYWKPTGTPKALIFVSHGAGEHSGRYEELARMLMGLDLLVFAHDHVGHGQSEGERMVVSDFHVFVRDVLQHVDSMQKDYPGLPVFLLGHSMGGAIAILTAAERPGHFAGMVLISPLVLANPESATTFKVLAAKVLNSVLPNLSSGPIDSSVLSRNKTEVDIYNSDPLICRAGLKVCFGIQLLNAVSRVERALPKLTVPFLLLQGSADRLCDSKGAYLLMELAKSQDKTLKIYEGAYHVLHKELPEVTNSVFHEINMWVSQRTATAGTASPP
Procedure: The ThermoFluor (TF) assay is a 384-well plate-based binding assay that measures thermal stability of proteins^1,2. […] TF dye used in all experiments was 1,8-ANS (Invitrogen: A-47). Final TF assay conditions used for MGL studies were 0.07 mg/ml of mutant MGL, 100 μM ANS, 200 mM NaCl, 0.001% Tween-20 in 50 mM PIPES (pH=7.0).
Screening compound plates contained 100% DMSO compound solutions at a single concentration. […] Columns 12 and 24 were used as DMSO reference and contained no compound. […] Following compound dispension, protein and dye solutions were added to achieve the final assay volume of 3 μL.
Bar-coded assay plates were robotically loaded onto a thermostatically controlled PCR-type thermal block and then heated from 40 to 90° C. degrees at a ramp-rate of 1° C./min for all experiments. Fluorescence was measured by continuous illumination with UV light (Hamamatsu LC6), supplied via fiber optics and filtered through a band-pass filter (380-400 nm; >6 OD cutoff). Fluorescence emission of the entire 384-well plate was detected by measuring light intensity using a CCD camera (Sensys, Roper Scientific) filtered to detect 500±25 nm, resulting in simultaneous and independent readings of all 384 wells. […]

SMILES	Method 1: peak % reversal [1] [%]	Kd (mutant MGL) [nM]
O=C(c1ccc(-c2cccc(C(F)(F)F)c2)c(Cl)c1)N1CC(N2CCN(C(=O)c3cscn3)CC2)C1 [Cpd 1102]	38	–
Cc1nc(C(=O)N2CCN(C3CN(C(=O)c4ccc(-c5cccc(C(F)(F)F)c5)cc4)C3)CC2)cs1 [Cpd 1217, 1-[(2-Methyl-l,3-thiazol-4-yl)carbonyl]-4-(1-{[3′-(trifluoromethyl)biphenyl-4-yl]carbonyl}azetidin-3-yl)piperazine]	–	104
